Assays:
Assay type in all cases: cell-based, human
[1] = tested on: matrix metalloprotease 9 mRNA; test: MMP9 mRNA expression in HaCaT cells contacted with FICZ, quantitative PCR; details: 24 hours
Method: First, HaCaT cells (CLI; Catalogue No.: 300493) were suspended in a DMEM medium at the density of 1×10^5 cell/mL, and 100 μL of the thus obtained suspension was added to each well of white 96 well plates (Thermo Fisher Scientific, MA, U.S.A.; Catalogue No.: 136102) so that the number of the cells in each well was 10,000 cells/well. In accordance with a conventional method, the cells were incubated at 37° C. for 24 hours in the presence of 5% CO2. Thereafter, the DMEM medium was removed, and 100 μL of a new DMEM medium containing FICZ at a predetermined concentration (i.e., 5 nM, 50 nM, 500 nM, and 5,000 nM) was added, followed by further incubation for 24 hours at 37° C. and 5% CO2. Meanwhile, negative controls were prepared by adding 100 μL of a DMEM medium containing no FICZ instead of the DMEM medium containing FICZ, which were also incubated for 24 hours at 37° C. and 5% CO2. […]
Quantitative PCR was carried out by using THUNDERBIRD Next SYBR qPCR Mix (Toyobo Co., Ltd., Osaka, Japan; Catalogue No. QPX-201) and StepOne Real-Time PCR System (Thermo Fisher Scientific, MA, USA). […] The reaction solution was used for quantitative PCR. Based on Ct (cycle threshold) value obtained by quantitative PCR, an amount of mRNA of each target gene was obtained. […]

[2] = tested on: matrix metalloprotease 9 (MMP9) mRNA; test: MMP9 mRNA expression in HaCaT cells contacted with test substance, quantitative PCR; details: HaCaT cells, 24 hours
Method: (§1) In this experiment, the effect of Fraglide-1 on the expression of MMP9 in the level of mRNA was examined first. Specifically, HaCaT cells were treated with Fraglide-1 in the same manner as described in Experiment 3-1 except that HaCaT cells were incubated for 24 hours in the medium containing 0 μM, 1 μM, 10 μM, and 100 μM of Fraglide-1 instead of being incubated for 24 hours in the medium containing both FICZ and Fraglide-1. The total RNA was then extracted, cDNA was prepared, and the quantitative PCR was performed using the obtained cDNA. Herein, the procedure of the quantitative PCR was the same as described in Experiment 3-1 except that the primers shown in below Table 4 were used. In this experiment, the expression of MMP2 mRNA was also quantified in addition to MMP9 mRNA. MMP2 is known as a MMP which is not transcriptionally regulated by a xenobiotic responsive element (XRE).
(§2) In FIG. 9 and FIG. 10, the results obtained for each sample were shown as a relative value, with the mRNA expression level of MMP9 or MMP2 in the HaCaT cells incubated for 24 hours in DMEM medium without FICZ (i.e., the non-treated HaCaT cells) set to 1. The results shown in FIG. 9 and FIG. 10 were the mean obtained from three independent experiments. The error bars represent the standard deviation (SD).
Next, experiments were performed to inhibit MMP9 and MMP2 in HaCaT cells using retinoic acid (CAS RN: 302-79-4) and nicotinamide (CAS RN: 98-92-0), which are known to be substances having anti-wrinkle effect. Briefly, HaCaT cells were made in contact with retinoic acid and nicotinamide in the same manner as in Experiment 4-1 except that retinoic acid and nicotinamide were used instead of Fraglide-1. Then, the total RNA was extracted, cDNA was prepared, and the quantitative PCR was carried out using the obtained cDNA.
as §2, with “FIG. 12” for “FIG. 9”, “FIG. 13,” for “FIG. 10,”, “medium containing neither retinoic acid nor nicotinamide” for “medium without FICZ”, “FIG. 13” for “FIG. 10”

[3] = tested on: matrix metalloprotease 2 (MMP2) mRNA; test: MMP2 mRNA expression in HaCaT cells contacted with test substance, quantitative PCR; details: 1 μM, 10 μM and 100 μM, HaCaT cells, 24 hours
Method: as §1, with “(XRE). […]” for “(XRE).”
Next, experiments were performed to inhibit MMP9 and MMP2 in HaCaT cells using retinoic acid (CAS RN: 302-79-4) and nicotinamide (CAS RN: 98-92-0), which are known to be substances having anti-wrinkle effect. […] Then, the total RNA was extracted, cDNA was prepared, and the quantitative PCR was carried out using the obtained cDNA. […]

Compound	concentration necessary to observe a significant increase in the expression level of MMP9 mRNA [1]	expression level of MMP9 mRNA, dependence on concentration ([1]; FICZ 5-5,000 nM)	decrease of expression level of MMP9 mRNA compared to medium without Fraglide-1 ([2]; 1 μM)	decrease of expression level of MMP9 mRNA compared to medium without Fraglide-1 ([2]; 10 μM) [%]	decrease of expression level of MMP9 mRNA compared to medium without Fraglide-1 ([2]; 100 μM) [%]	MMP2 mRNA expression [3]
6-formylindolo[3,2-b] carbazole [FICZ]	about 5000 nM	increased along with the concentration of FICZ	–	–	–	–
O=C1C=C(c2ccccc2)C(O)O1 (stereo not drawn) [Fraglide-1, 5-hydroxy-4-phenyl-2(5H)butenolide]	–	–	approximately 42%	~52	~80	no decrease in the mRNA expression was observed

— patent US20240285497A1, “METHOD FOR EVALUATING AN ABILITY OF A TEST SAMPLE TO TRIGGER A FOREIGN BODY REACTION IN THE SKIN, A METHOD FOR SCREENING A SUBSTANCE HAVING AN ABILITY TO INHIBIT A FOREIGN BODY REACTION IN THE SKIN, AND AN AGENT FOR INHIBITING A FOREIGN BODY REACTION IN THE SKIN” (priority 2021, published 2024)
